According to US10526322B2, “Inhibitors of kidney-type glutaminase, GLS-1” (CORNELL UNIVERSITY, priority 2014, dated 2020):

Key:
[1] = target: T1, 488-GAC (mouse kidney-type glutaminase isoform 2, GAC) (Mus musculus, UniProt D3Z7P3); experiment: Real-time binding assay, quenching of 488-GAC fluorescence; details: 10 nM 488-GAC, 96-well plate format; read-out: KD of binding isotherm (fluorescence quenching)
T1 construct: (residues 72-603) was cloned into a pET23a vector; His-tag with thrombin cleavage site (N, cleaved yes); made in house
T1 sequence (D3Z7P3 72-603 isoform D3Z7P3-2): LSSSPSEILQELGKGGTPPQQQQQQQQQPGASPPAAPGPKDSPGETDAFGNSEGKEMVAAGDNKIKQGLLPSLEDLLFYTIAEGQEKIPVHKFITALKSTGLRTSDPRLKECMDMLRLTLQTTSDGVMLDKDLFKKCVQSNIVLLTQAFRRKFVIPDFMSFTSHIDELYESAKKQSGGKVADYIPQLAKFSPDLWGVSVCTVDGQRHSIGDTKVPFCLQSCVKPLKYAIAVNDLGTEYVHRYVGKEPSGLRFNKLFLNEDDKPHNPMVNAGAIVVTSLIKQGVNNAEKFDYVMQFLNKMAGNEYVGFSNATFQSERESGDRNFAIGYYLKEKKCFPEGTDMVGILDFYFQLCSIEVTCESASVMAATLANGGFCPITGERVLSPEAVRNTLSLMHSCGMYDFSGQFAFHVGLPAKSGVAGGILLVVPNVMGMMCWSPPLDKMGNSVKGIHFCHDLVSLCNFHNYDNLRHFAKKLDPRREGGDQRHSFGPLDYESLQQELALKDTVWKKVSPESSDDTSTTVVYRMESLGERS
Method: A plasmid encoding the mouse kidney-type glutaminase isoform 2 (GAC, GenBank Accession No. NP_001106854.1, which is hereby incorporated by reference in its entirety) (residues 72-603) was cloned into a pET23a vector containing an N-terminal histidine (His)-tag and thrombin cleavage site. The expressed protein was purified using Co^2+ affinity beads (Clontech), followed by His-tag cleavage with human thrombin (Haemetologic Technologies) overnight at 4° C., and subsequently purified by anion exchange (GE healthcare) and gel filtration chromatography. […] The stoichiometry of labeling was determined using the probe manufacturer's reported molar absorptivity values and instructions. Briefly, the concentration of GAC was determined by first correcting absorbance at 280 nm (Abs280) for each probe, using the reported correction values (0.11 for AlexaFluor 488 and 0.23 for QSY-9) and their absorbance values at their absorbance maxima (495 nm and 562 nm, respectively). The corrected Abs280 was used along with the experimentally determined molar absorptivity of GAC (ε280=38,850 M−1 cm−1). AlexaFluor 488 and QSY-9 probes were quantified using their respective absorbance maxima and the manufacturer's reported molar absorptivity values (ε495=71,000 M−1 cm−1 and ε562=85,000 M−1 cm−1). […]

488-GAC and QSY9-GAC = target: T2, 488-GAC and QSY9-GAC (Mus musculus, UniProt D3Z7P3); experiment: FRET assay for GAC tetramer formation; format: binding; details: 25 nM 488-GAC and 25 nM QSY9-GAC
T2 construct: (residues 72-603) was cloned into a pET23a vector; His-tag with thrombin cleavage site (N, cleaved yes); made in house
T2 sequence (D3Z7P3 72-603 isoform D3Z7P3-2): T1 sequence (D3Z7P3 72-603 isoform D3Z7P3-2)
Method: Fluorescence experiments were performed using a Varian Cary Eclipse Fluorometer in the counting mode. Excitation and emission wavelengths were 490 and 520 nm, respectively. Experiments were all performed using 1-mL samples with continuous stirring at 20° C. in 50 mM Tris-Acetate, pH 8.5, 0.1 mM ethylenediamine tetraacetic acid (EDTA). For wild-type (WT) GAC titrations in the absence of inorganic phosphate, 25 nM 488-GAC was equilibrated with 25 μL of QSY9-GAC (at varying concentrations) and allowed to equilibrate for 10 minutes, at which point 75 μL of the appropriate concentration of unlabeled WT GAC was added to provide a 10-fold excess over labeled-GAC. To test whether the purified GAC mutants can form oligomers with WT GAC, 200 nM QSY9-GAC (D391K) or 200 nM QSY9-GAC (D391K, K316E, R459E) was added to an equilibrated sample of 20 nM 488-WT GAC. When assaying the effects of BPTES and 968 on oligomer formation, BPTES or 968 was added following equilibration of a sample of 25 nM QSY9-WT GAC and 25 nM 488-WT GAC. Both BPTES and 968 were prepared in DMSO, and appropriate dilutions were made so that less than 2% (v/v) DMSO was added to an experimental sample.

CN(C)c1ccc(C2Nc3ccc4ccccc4c3C3=C2C(=O)CC(C)(C)C3)cc1Br (centres unmarked) [Compound 968]
Kd [1]: 3000 nM | effect on GAC tetramer formation (488-GAC emission in mixture with QSY9-GAC) (488-GAC and QSY9-GAC): does not appear to interfere with GAC tetramer formation
